Assay results as given in a compilation of properties of binary mixtures (doi:10.1016/j.molliq.2017.12.015).

Assay: xn = mol fraction of the nth substance listed
Settings: 100 kPa

CCCC[n+]1ccn(C)c1.O=S(=O)([N-]S(=O)(=O)C(F)(F)F)C(F)(F)F + CCOCCO
x1 = 1
Settings | speed of sound [m/s]
298.15 K | 1227.8
303.15 K | 1216.7
308.15 K | 1205.8
313.15 K | 1194.9
318.15 K | 1184.2
323.15 K | 1173.6

CCOCCO + CCCC[n+]1ccn(C)c1.O=S(=O)([N-]S(=O)(=O)C(F)(F)F)C(F)(F)F
speed of sound [m/s]
Settings | x2 = 0 | x2 = 0.1036 | x2 = 0.1905 | x2 = 0.2965 | x2 = 0.3882 | x2 = 0.489 | x2 = 0.5889 | x2 = 0.7018 | x2 = 0.7928 | x2 = 0.9071
298.15 K | 1302.8 | 1279.9 | – | – | 1240.5 | 1234.5 | 1231.4 | 1230.7 | – | 1228.3
303.15 K | 1285.1 | 1264.6 | 1246.6 | 1234.2 | – | 1223.9 | 1219.6 | 1219 | 1218.4 | 1217.3
308.15 K | 1267.3 | 1248.9 | 1232.1 | 1220.6 | 1214.5 | 1210.4 | 1207.6 | 1207.2 | 1206.9 | 1206.1
313.15 K | – | 1230.1 | 1217.7 | – | – | 1198 | 1197.7 | 1196.5 | 1196 | 1195
318.15 K | 1232 | 1217.4 | 1203.3 | – | – | 1187.7 | 1186.9 | 1185.9 | – | 1185
323.15 K | 1214.3 | 1201.5 | 1189 | – | 1176.2 | 1175.5 | 1175 | 1174.9 | 1174.3 | 1174
